Measurements as given in ChEMBL document CHEMBL5143643, “Development of disulfide-functionalized peptides covalently binding G protein-coupled receptors” (Bioorg Med Chem, 2022).
*1 amine or outer side, *2 acyl side, *3 side chain or, on linkers, in order; H or OH if unused. Where a SMILES comes first, the peptide text is derived from it. Cysteamine = C(CS[*:2])N[*:1]

Key:
[1] = biological target: T1, Neurotensin receptor type 1 (Homo sapiens, UniProt P30989); test: Displacement of [3H]neurotensin from human NTSR1 expressed in CHO cell membranes by radioligand depletion assay; design: species or system Cell membrane
Target sequence in this assay (P30989 whole entry): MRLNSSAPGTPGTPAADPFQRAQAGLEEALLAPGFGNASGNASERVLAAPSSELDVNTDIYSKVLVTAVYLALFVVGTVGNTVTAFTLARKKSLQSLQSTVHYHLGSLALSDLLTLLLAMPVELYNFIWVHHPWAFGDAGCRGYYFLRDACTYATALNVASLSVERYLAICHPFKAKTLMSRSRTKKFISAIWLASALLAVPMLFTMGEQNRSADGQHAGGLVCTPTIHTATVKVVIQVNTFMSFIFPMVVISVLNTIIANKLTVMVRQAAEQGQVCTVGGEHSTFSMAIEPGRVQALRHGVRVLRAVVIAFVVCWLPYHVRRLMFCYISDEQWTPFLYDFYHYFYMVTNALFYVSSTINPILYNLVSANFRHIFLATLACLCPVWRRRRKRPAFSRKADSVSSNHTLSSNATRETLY

[2] = biological target: Neurotensin receptor type 2 (Homo sapiens, UniProt O95665); test: Displacement of [3H]NT(8-13) from human NTSR2 expressed in HEK293 cell membranes by radioligand displacement assay; design: species or system Cell membrane
Sequence of Neurotensin receptor type 2 (O95665 whole entry): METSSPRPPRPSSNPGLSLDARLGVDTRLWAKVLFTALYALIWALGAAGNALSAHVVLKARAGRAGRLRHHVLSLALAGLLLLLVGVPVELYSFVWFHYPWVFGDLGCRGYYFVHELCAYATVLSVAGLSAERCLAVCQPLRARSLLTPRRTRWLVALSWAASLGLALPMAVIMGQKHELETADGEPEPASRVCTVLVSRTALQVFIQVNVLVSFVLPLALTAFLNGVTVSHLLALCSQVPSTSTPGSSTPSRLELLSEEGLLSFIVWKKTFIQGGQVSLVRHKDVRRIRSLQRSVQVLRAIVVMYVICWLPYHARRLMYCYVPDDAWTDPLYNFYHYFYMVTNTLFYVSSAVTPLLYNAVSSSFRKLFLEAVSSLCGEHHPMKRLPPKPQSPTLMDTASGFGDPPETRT

[3] = biological target: T1, Neurotensin receptor type 1; test: Displacement of [3H]NT(8-13) from human NTSR1 F2.65C mutant expressed in HEK293 cell membranes by radioligand displacement assay; design: species or system Cell membrane
Target sequence in this assay (P30989 whole entry, looked up): as the sequence (P30989 whole entry) above

[4] = biological target: T1, Neurotensin receptor type 1; test: Displacement of [3H]NT(8-13) from human NTSR1 F2.65C mutant expressed in HEK293 cell membranes assessed as amount of blocking at 1 uM incubated for 120 mins by radioligand depletion assay; details: Cell membrane
Target sequence in this assay (P30989 whole entry): as above

SMILES | Ki ([1]; cho) | Ki [2] | Ki [3] | Activity [4] | Ki [1]
CC[C@H](C)[C@H](NC(=O)[C@H](Cc1ccc(O)cc1)NC(=O)[C@@H]1CCCN1C(=O)[C@H](CCCNC(=N)N)NC(=O)[C@@H](N)CCCNC(=N)N)C(=O)N[C@@H](CC(C)C)C(=O)N[C@H](CCSSCCN)C(=O)O | 7 nM | 5.2 nM | 40 nM | -2% | –
CC(C)C[C@H](NC(=O)[C@@H](CCSSCCN)NC(=O)[C@H](Cc1ccc(O)cc1)NC(=O)[C@@H]1CCCN1C(=O)[C@H](CCCNC(=N)N)NC(=O)[C@@H](N)CCCNC(=N)N)C(=O)O | 5.3 nM | 17 nM | 15 nM | 88% | –
CC(C)C[C@H](NC(=O)[C@H](CSSCCN)NC(=O)[C@H](Cc1ccc(O)cc1)NC(=O)[C@@H]1CCCN1C(=O)[C@H](CCCNC(=N)N)NC(=O)[C@@H](N)CCCNC(=N)N)C(=O)O | – | 55 nM | 28 nM | 61% | 49 nM
CC[C@H](C)[C@H](NC(=O)[C@H](Cc1ccc(O)cc1)NC(=O)[C@@H]1CCCN1C(=O)[C@H](CCCNC(=N)N)NC(=O)[C@@H](N)CCCNC(=N)N)C(=O)N[C@@H](CC(C)C)C(=O)N[C@@H](CSSCCN)C(=O)O (H-RRPYILC(Cysteamine)-OH) | – | 4.2 nM | 51 nM | 6% | 2.4 nM
